Measured values: PubChem BioAssay AID651797 (The Scripps Research Institute Molecular Screening Center, 2012)
Activity calls are given as the source filed them. The rule behind the calls is not given here.

Target: Nuclear receptor coactivator 3 (Homo sapiens) (UniProt Q9Y6Q9)
Test: SRC3 (NCOA3) coactivator inhibitors, late-stage follow-up, selectivity assay for SRC1 inhibitor project, cell-based, luminescence reporter (AID 651797)
Conditions: human cells, dose response

Chain of Nuclear receptor coactivator 3 (Homo sapiens) (Q9Y6Q9 whole entry, looked up): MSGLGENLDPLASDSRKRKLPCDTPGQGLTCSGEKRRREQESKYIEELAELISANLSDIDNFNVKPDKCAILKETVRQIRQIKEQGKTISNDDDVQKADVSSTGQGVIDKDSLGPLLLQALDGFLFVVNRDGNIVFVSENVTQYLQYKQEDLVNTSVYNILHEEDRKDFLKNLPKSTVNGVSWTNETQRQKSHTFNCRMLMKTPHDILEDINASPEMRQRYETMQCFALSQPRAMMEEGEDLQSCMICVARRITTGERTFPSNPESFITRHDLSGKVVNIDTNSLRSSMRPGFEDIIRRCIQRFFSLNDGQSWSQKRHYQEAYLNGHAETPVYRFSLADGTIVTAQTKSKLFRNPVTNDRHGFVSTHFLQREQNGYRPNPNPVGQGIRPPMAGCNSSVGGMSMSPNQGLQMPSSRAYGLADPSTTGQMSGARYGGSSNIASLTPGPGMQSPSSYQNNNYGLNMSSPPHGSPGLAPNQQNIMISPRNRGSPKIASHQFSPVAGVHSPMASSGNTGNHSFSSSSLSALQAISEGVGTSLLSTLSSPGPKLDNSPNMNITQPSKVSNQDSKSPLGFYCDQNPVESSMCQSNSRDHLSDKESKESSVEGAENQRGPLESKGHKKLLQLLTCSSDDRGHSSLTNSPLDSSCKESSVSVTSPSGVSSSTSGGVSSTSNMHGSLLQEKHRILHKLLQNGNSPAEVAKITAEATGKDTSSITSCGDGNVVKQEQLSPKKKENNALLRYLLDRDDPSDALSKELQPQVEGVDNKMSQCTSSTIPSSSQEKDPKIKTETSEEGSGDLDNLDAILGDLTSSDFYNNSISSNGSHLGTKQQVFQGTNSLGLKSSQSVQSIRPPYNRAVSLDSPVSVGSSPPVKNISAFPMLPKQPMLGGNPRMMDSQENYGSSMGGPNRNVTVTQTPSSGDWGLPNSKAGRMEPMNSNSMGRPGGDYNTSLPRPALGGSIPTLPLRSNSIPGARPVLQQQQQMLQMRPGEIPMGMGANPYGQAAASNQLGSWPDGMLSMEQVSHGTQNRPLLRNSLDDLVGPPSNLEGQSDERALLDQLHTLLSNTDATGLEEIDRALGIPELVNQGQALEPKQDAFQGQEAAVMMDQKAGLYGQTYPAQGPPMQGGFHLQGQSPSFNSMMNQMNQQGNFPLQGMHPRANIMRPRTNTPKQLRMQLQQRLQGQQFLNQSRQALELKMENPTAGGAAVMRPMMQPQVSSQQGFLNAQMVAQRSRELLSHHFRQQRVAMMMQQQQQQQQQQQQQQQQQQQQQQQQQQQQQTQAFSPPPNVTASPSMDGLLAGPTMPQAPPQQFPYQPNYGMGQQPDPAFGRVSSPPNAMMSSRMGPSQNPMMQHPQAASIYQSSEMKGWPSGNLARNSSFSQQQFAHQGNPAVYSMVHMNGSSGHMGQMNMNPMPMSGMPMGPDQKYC

IC50	SMILES
0.69 µM	COc1cc([C@@H]2c3cc4c(cc3C(OC3OC5COC(C)OC5C(O)C3O)C3COC(=O)[C@@H]32)OCO4)cc(OC)c1O (stereo partly drawn)
8.22 µM	COc1ccc(NC(=O)CN(C)C(=O)C2(c3ccccc3)CCCC2)cc1
inactive	COc1ccc(Nc2ncnc3ccc(Br)cc23)c(OC)c1
